Measured values: article PMC7435722, “Apoferritin and Apoferritin-Capped Metal Nanoparticles Inhibit Arginine Kinase of Trypanosoma brucei” (Molecules, 2020)
Where two headings read alike, the source gives them in different places.

Test system: T1, arginine kinase of T. brucei (recombinant form)
T1 construct: gene AK1; recombinant, obtained from Rhodes University laboratory
Assay: phosphate release, molybdate colorimetric […] nm, nonlinear Michaelis-Menten fit
Type: biochemical, Trypanosoma brucei
Conditions: no inhibitor, Mg sulfate, 100 mM Tris-HCl pH 8.6, 30 °C

Nc1ncnc2c1ncn2[C@@H]1O[C@H](COP(=O)(O)OP(=O)(O)OP(=O)(O)O)[C@@H](O)[C@H]1O [ATP]
Km (2 mM L-arginine fixed, ATP 0.1-0.5 mM, read-out: Km (ATP)): 5 µM

N=C(N)NCCC[C@H](N)C(=O)O [L-arginine]
Km (0.5 mM ATP fixed, L-arginine 0.5-2.5 mM, read-out: Km (L-arginine)): 21 ± 10 µM
